Test results: patent publication US20240141020A1, “METHOD FOR MODULATING AFUCOSLYATION OF AN ANTIBODY PRODUCT” (LONZA BEND INC., priority 2021, published 2024)

System: CHO GS-KO cells
Assay: Modulation of afucosylation of a model IgG antibody produced by CHO GS-KO cells in supplemented culture medium (shake flasks, 5 days, LC-MS glycan profile)
Assay type: cell-based, Chinese hamster
Conditions: for Average % Afucosylation: mAb harvested day 5, G0/(G0F+G0), n = 3 technical replicates, control 5.21%
Procedure: CHO GS-KO cells were cultured in chemically defined culture medium supplemented with different chemicals at different concentrations to test the impact of those chemicals on the N-linked glycan profile of the product produced by the cultures. The product produced by this cell line was a model IgG antibody. • 1. Prepare culture media with supplemented chemicals • 2. Culture cells in media from (1) • 3. Harvest mAb produced in cultures and measure glycan profile of purified, reduced, and de-salted mAb products • 4. Determine statistical impact of chemical supplements on glycan product quality The chemicals that were supplemented to the medium included: • None (Control) • Mannose • N-Acetylmannosamine (ManNAc)+Galactose Concentrated stock solutions of mannose, ManNAc, and galactose were prepared and added into culture media. Specific volumes of the stock solution was supplemented to the culture media to generate the conditions in Table 1: GS-KO cells were inoculated at a density of 2×10^5 cells/mL into vented shake flasks containing medium from Table 1. Cultures were grown for five days in a temperature, CO2, and humidity-controlled incubator. Daily samples were taken to monitor the culture health. mAb product was harvested from day 5 shake flask cultures and purified through Protein A capture. Purified mAb was prepared for glycan analysis by reducing mAb to separate heavy and light chains. Reduced mAb was injected onto an LC-MS where the reduced mAb was de-salted by passing through a reverse-phase de-salting column on the LC prior to injection into a time of flight mass spectrometer (TOF MS) (Agilent 6230B). Three injections per sample was performed for technical replicates. Protein Metrics Software was used to process the resulting LC-MS data and the relative abundance of each glycan species was reported. The glycan species measured in processing included: G0, G0F, G1F, G2F, G1F+NeuAc, […]+NeuAc, […]+2NeuAc. Percent afucosulated mAb was calculated by dividing the total amount of afucosylated species by the sum of afucosylate and fucosylated species (G0/[…]+G0).

| SMILES | afucosylation compared to control (in words) (higher concentration of ManNAc (10 uM), with 1 mM galactose) | Average % Afucosylation (culture medium + 1 g/L Mannose) [%] | Average % Afucosylation (culture medium + 3 g/L Mannose) [%] | Average % Afucosylation (culture medium + 6 g/L Mannose) [%] | high mannose species of the antibody product (in words) (mannose in amounts greater than about 1 g/L) | % afucosylated mAb compared to control (in words) (supplementation of culture medium with mannose, 1, 3, 6 g/L) |
| --- | --- | --- | --- | --- | --- | --- |
| CC(=O)N[C@@H]1C(O)O[C@H](CO)[C@@H](O)[C@@H]1O (stereo partly drawn) [ManNAc, N-Acetylmannosamine] | decreasing afucosylation slightly |  |  |  |  |  |
| O=C[C@@H](O)[C@@H](O)[C@H](O)[C@H](O)CO [Mannose, mannose] |  | 5.63 | 6.10 | 7.27 | does not appear to result in an increase in high mannose species | significantly increased |
